# US12715781B2, “Water treatment and purification method” (priority 2019, dated 2026)
# Columns and labels:
# E. coli = assay: Agar well diffusion, zone of inhibition; type: cell-based; settings: 8 mm wells, nanoparticles 100 μL (50 μg) per well, tetracycline 15 μg/wells, 24 hr at 37° C.
# Procedure: (§1) For bacterial growth, a lawn of culture was prepared by spreading the […] of each test organism on nutrient agar plates. Plates were left standing for 10 minutes to let the culture get absorbed. Then 8 mm wells were punched into the nutrient agar plates for testing nanomaterial antimicrobial activity. Using a micropipette, 100 μL (50 μg) of the sample of nanoparticle suspension was poured onto each of five wells on all plates. After 24 hr incubation at 37° C.±2° C., the diameter of inhibition zone was measured.
# S. aureus ATCC 25923 = assay: Agar well diffusion, zone of inhibition; type: cell-based, Staphylococcus aureus; settings: 8 mm wells, nanoparticles 100 μL (50 μg) per well, tetracycline 15 μg/wells, 24 hr at 37° C.
# Procedure: as §1
smiles,measurement,setting,value
"CN(C)[C@@H]1C(O)=C(C(N)=O)C(=O)[C@@]2(O)C(O)=C3C(=O)c4c(O)cccc4[C@@](C)(O)[C@H]3C[C@@H]12 [Tetracycline, tetracycline]",Inhibitions zones diameters,E. coli,20 ± 0.2 mm
same,Inhibitions zones diameters,S. aureus ATCC 25923,18 ± 0.2 mm
